Several values for one entry are separate records, joined by “and”; a condition that tells them apart may be missing. Equal entries are not always repeated. Inconclusive results and toxic doses are left out. Cut-off read from the data, not from the text of the source: active = T/C of 150% or more; inactive = T/C below 125%.
Tested on: L1210 leukemia ip in BDF1 mice, survival T/C
Test: NCI In Vivo Anticancer Drug Screen. Data for tumor model L1210 Leukemia (intraperitoneal) in B6D2F1 (BDF1) mice
Settings: endpoint: mean survival time, higher = longer survival
How it was run: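 In this screen, tumor-bearing mice given compound are compared to those given vehicle, and their survival values are reported as a treated-to-control quotient.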

[1] = dose: 50.0 mg/kg/injection, schedule: Q01DX009 (ip), vehicle: Klucel (hydroxypropylcellulose) (HPC)
[2] = dose: 100.0 mg/kg/injection, schedule: Q01DX009 (ip), vehicle: Klucel (hydroxypropylcellulose) (HPC)
[3] = dose: 100.0 mg/kg/injection, schedule: Q04DX003 (ip), vehicle: Klucel (hydroxypropylcellulose) (HPC)
[4] = dose: 200.0 mg/kg/injection, schedule: Q01DX009 (ip), vehicle: Klucel (hydroxypropylcellulose) (HPC)
[5] = dose: 200.0 mg/kg/injection, schedule: Q04DX003 (ip), vehicle: Klucel (hydroxypropylcellulose) (HPC)
[6] = dose: 100.0 mg/kg/injection, schedule: Q01DX001 (ip), vehicle: saline
[7] = dose: 100.0 mg/kg/injection, schedule: Q04DX002 (ip), vehicle: Klucel (hydroxypropylcellulose) (HPC)
[8] = dose: 400.0 mg/kg/injection, schedule: Q01DX009 (ip), vehicle: Klucel (hydroxypropylcellulose) (HPC)
[9] = dose: 200.0 mg/kg/injection, schedule: Q04DX002 (ip), vehicle: Klucel (hydroxypropylcellulose) (HPC)
[10] = dose: 400.0 mg/kg/injection, schedule: Q04DX002 (ip), vehicle: Klucel (hydroxypropylcellulose) (HPC)
[11] = dose: 100.0 mg/kg/injection, schedule: Q04DX003 (ip), vehicle: saline with Tween-80
[12] = dose: 50.0 mg/kg/injection, schedule: Q01DX001 (ip), vehicle: carboxymethylcellulose (CMC)
[13] = dose: 100.0 mg/kg/injection, schedule: Q01DX001 (ip), vehicle: carboxymethylcellulose (CMC)
[14] = dose: 200.0 mg/kg/injection, schedule: Q01DX001 (ip), vehicle: carboxymethylcellulose (CMC)

Measured: T/C

ClC1=C(Cl)C2(Cl)C3COCC3C1(Cl)C2(Cl)Cl (centres undefined)
inactive: [1] 105 % of control | [2] 90 % of control | [3] 97 % of control | [4] 90 % of control | [5] 95 % of control

CCOC(=O)/C(=C/c1ccc(C)cc1)P(=O)(OCC)OCC
inactive: dose: 50.0 mg/kg/injection, schedule: Q01DX001 (ip), vehicle: saline 101 % of control | [6] 101 % of control

C=CCNC(=S)NCc1ccc(Cl)cc1
inactive: dose: 25.0 mg/kg/injection, schedule: Q01DX009 (ip), vehicle: Klucel (hydroxypropylcellulose) (HPC) 100 % of control | [1] 102 % of control | [2] 94 % of control | [7] 111 % of control

O=C(O)c1ccc2c(c1)C(=O)N(c1ccccc1)C2=O
inactive: dose: 100.0 mg/kg/injection, schedule: Q04DX002 (ip), vehicle: saline with Tween-80 93 % of control | dose: 200.0 mg/kg/injection, schedule: Q04DX002 (ip), vehicle: saline with Tween-80 93 % of control | dose: 400.0 mg/kg/injection, schedule: Q04DX002 (ip), vehicle: saline with Tween-80 97 % of control

O=C(O)c1cc(=O)cc(C(=O)O)[nH]1
inactive: [2] 102 % of control | [3] 102 % of control | [4] 96 % of control | [5] 96 % of control | [8] 92 % of control | dose: 400.0 mg/kg/injection, schedule: Q04DX003 (ip), vehicle: Klucel (hydroxypropylcellulose) (HPC) 104 % of control

Cc1cccc(C)c1OC(=O)Nc1ccc(Cl)cc1
inactive: [7] 96 % of control | [9] 110 % of control | [10] 96 % of control

O=C1CCCN1C1CC2c3ccccc3C1c1cccc[n+]12 (centres undefined)
inactive: dose: 5.0 mg/kg/injection, schedule: Q01DX009 (ip), vehicle: saline sonified 94 % of control | dose: 10.0 mg/kg/injection, schedule: Q01DX009 (ip), vehicle: saline sonified 98 % of control | dose: 20.0 mg/kg/injection, schedule: Q01DX009 (ip), vehicle: saline sonified 97 % of control

NC(N)=NN=C1CCC(C2CCCCC2)CC1 (centres undefined)
inactive: dose: 15.0 mg/kg/injection, schedule: Q01DX Z (ip), vehicle: methylcellulose (MC) 95 % of control | dose: 30.0 mg/kg/injection, schedule: Q01DX Z (ip), vehicle: methylcellulose (MC) 97 % of control | dose: 30.0 mg/kg/injection, schedule: Q01DX Z (oral), vehicle: methylcellulose (MC) 92 % of control | dose: 60.0 mg/kg/injection, schedule: Q01DX Z (ip), vehicle: methylcellulose (MC) 92 % of control | dose: 60.0 mg/kg/injection, schedule: Q01DX Z (oral), vehicle: methylcellulose (MC) 92 % of control | dose: 120.0 mg/kg/injection, schedule: Q01DX Z (ip), vehicle: methylcellulose (MC) 92 % of control | dose: 120.0 mg/kg/injection, schedule: Q01DX Z (oral), vehicle: methylcellulose (MC) 93 % of control

CC1(C)Oc2ccccc2O1
inactive: [11] 93 % of control

CN(C)CCCNc1c2ccccc2nc2ccc(F)cc12
inactive: dose: 5.0 mg/kg/injection, schedule: Q01DX001 (ip), vehicle: saline 100 % of control | dose: 10.0 mg/kg/injection, schedule: Q01DX001 (ip), vehicle: saline 96 % of control | dose: 20.0 mg/kg/injection, schedule: Q01DX001 (ip), vehicle: saline 107 % of control

CCOC(=O)N1Cc2cc3cc(OC)c(OC)cc3nc2C1
inactive: dose: 100.0 mg/kg/injection, schedule: Q01DX009 (ip), vehicle: saline with Tween-80 109 % of control | [11] 106 % of control | dose: 200.0 mg/kg/injection, schedule: Q01DX009 (ip), vehicle: saline with Tween-80 94 % of control | dose: 200.0 mg/kg/injection, schedule: Q04DX003 (ip), vehicle: saline with Tween-80 97 % of control | dose: 400.0 mg/kg/injection, schedule: Q01DX009 (ip), vehicle: saline with Tween-80 108 % of control | dose: 400.0 mg/kg/injection, schedule: Q04DX003 (ip), vehicle: saline with Tween-80 96 % of control

CCOC(=O)N1CC2CCC(C1)N2C
inactive: dose: 12.5 mg/kg/injection, schedule: Q04DX003 (ip), vehicle: saline 103 % of control | dose: 25.0 mg/kg/injection, schedule: Q04DX003 (ip), vehicle: saline 106 % of control | dose: 50.0 mg/kg/injection, schedule: Q04DX003 (ip), vehicle: saline 101 % of control

Cc1ccc2[nH]c3c(c2c1)C[P+](Cc1cccc2ccccc12)(c1ccccc1)CC3 (centres undefined)
inactive: dose: 25.0 mg/kg/injection, schedule: Q01DX001 (ip), vehicle: Klucel (hydroxypropylcellulose) (HPC) 87 % of control | dose: 25.0 mg/kg/injection, schedule: Q04DX003 (ip), vehicle: Klucel (hydroxypropylcellulose) (HPC) 91 % of control | dose: 50.0 mg/kg/injection, schedule: Q01DX001 (ip), vehicle: Klucel (hydroxypropylcellulose) (HPC) 92 % of control | dose: 50.0 mg/kg/injection, schedule: Q04DX003 (ip), vehicle: Klucel (hydroxypropylcellulose) (HPC) 105 % of control | dose: 100.0 mg/kg/injection, schedule: Q01DX001 (ip), vehicle: Klucel (hydroxypropylcellulose) (HPC) 112 % of control and 86 % of control | [3] 99 % of control | dose: 200.0 mg/kg/injection, schedule: Q01DX001 (ip), vehicle: Klucel (hydroxypropylcellulose) (HPC) 95 % of control

CN(C)C1CCc2ccc3ccccc3c2C1=O (centres undefined)
inactive: dose: 50.0 mg/kg/injection, schedule: Q01DX009 (ip), vehicle: saline 88 % of control

COc1cc2ccc3c(c2cc1OC)CN1CCc2cc4c(cc2C1C3)OCO4 (centres undefined)
inactive: dose: 100.0 mg/kg/injection, schedule: Q01DX009 (ip), vehicle: saline sonified 93 % of control | dose: 100.0 mg/kg/injection, schedule: Q04DX003 (ip), vehicle: saline sonified 109 % of control | dose: 200.0 mg/kg/injection, schedule: Q01DX009 (ip), vehicle: saline sonified 109 % of control | dose: 200.0 mg/kg/injection, schedule: Q04DX003 (ip), vehicle: saline sonified 98 % of control | dose: 400.0 mg/kg/injection, schedule: Q01DX009 (ip), vehicle: saline sonified 94 % of control | dose: 400.0 mg/kg/injection, schedule: Q04DX003 (ip), vehicle: saline sonified 101 % of control

CC(=O)Nc1ccc(NC(=O)Nc2ccc(F)cc2)cc1
inactive: [7] 108 % of control | [9] 118 % of control | [10] 105 % of control

CN(N=O)c1ccc(/C=C/c2ccnc3ccccc23)cc1
inactive: [12] 98 % of control | [13] 93 % of control | [14] 93 % of control | dose: 400.0 mg/kg/injection, schedule: Q01DX001 (ip), vehicle: carboxymethylcellulose (CMC) 91 % of control

O=C(Nc1ccc(F)c([N+](=O)[O-])c1)Nc1cc(C(F)(F)F)ccc1Cl
inactive: [2] 101 % of control | [4] 90 % of control | [8] 89 % of control

O=S(=O)(O)CNc1ccccc1
inactive: dose: 100.0 mg/kg/injection, schedule: Q01DX009 (ip), vehicle: saline 93 % of control | dose: 200.0 mg/kg/injection, schedule: Q01DX009 (ip), vehicle: saline 93 % of control | dose: 400.0 mg/kg/injection, schedule: Q01DX009 (ip), vehicle: saline 95 % of control

NCCCNCCO
inactive: [6] 102 % of control | dose: 200.0 mg/kg/injection, schedule: Q01DX001 (ip), vehicle: saline 111 % of control | dose: 400.0 mg/kg/injection, schedule: Q01DX001 (ip), vehicle: saline 105 % of control

COc1c2c(c3c(c1O)c(=O)c1ccccc1n3C)OCO2
inactive: [12] 104 % of control | [13] 90 % of control | [14] 90 % of control
